Measurements taken from patent US20060078921A1, “Biomarkers and expression profiles for toxicology” (priority 2002, published 2006).

Legend:
GADD-45 = assay: RT-PCR of GADD-family genes in liver, GADD-45; design: species or system Wistar rats; details: rat liver, in vivo
Text: (§1) The induction of these genes correlates with the histopathological findings in a time related fashion: While PEG-3 seems to be an early marker, GADD-45 and GADD-143 appear regulated at later time points, when the tissue damage is obvious by conventional endpoints.

[1] = Classification of liver expression profiles with support vector machines; design: species or system Wistar rats; details: compounds not present in the initial training set, individual animals, 5 SVMs
Method: Adult male Wistar rats were dosed in vivo and the resulting expression profile in liver was determined. SVMs were built for the discrimination between 3 different classes of hepatotoxicants, non-toxic substances and controls. The training set consisted of 180 gene expression profiles from individual animals treated with direct acting, cholestatic, steatotic, non-toxic compounds and corresponding vehicle-dosed controls. As a first step the chips were rescaled to a median value of 0 and a standard deviation of 1. Subsequently chips were presented to a linear kernel SVM (for classifier training the SVM software package from William Stafford Noble, Department of Computer Science, Columbia University, New York was used. Procedures for the Recursive Feature Elimination (RFE), automation of the whole training cycles and further data analysis were developed in house, using the PERL language.) Single binary classifiers for each category of chips were obtained by training one group against all others (‘One-vs-All’ training method). Multi-class classification for a given test chip was then carried out by combining the outputs of all binary classifiers. A leave-one-out cross validation procedure was applied to assess the quality of the trained machines with respect to the training data. […]

PEG-3 = assay: RT-PCR of GADD-family genes in liver, PEG-3; design: species or system Wistar rats; details: rat liver, in vivo
Text: as §1

GADD-153 = assay: RT-PCR of GADD-family genes in liver, GADD-153; design: species or system Wistar rats; details: rat liver, in vivo
Text: as §1

liver = details: man, cited from earlier work
[2] = system: candidate marker genes (Table 4); assay: RT-PCR of candidate marker genes to differentiate toxic and non-toxic 5-HT6 receptor antagonists (FIG. 10); assay type: in vivo, Wistar rats; details: rat liver, some of the selected genes
Method: The regulation of the mRNA levels of several candidate genes (Table 4) was verified with quantitative RT-PCR. Specific primers for these genes have been designed in order to evaluate the expression with RT-PCR using SybrGreen assay (Table 6). For each performed RT-PCR reaction, the specificity of the assay was evaluated with dissociation curve software (Applied Biosystems), as well as by assessment of the size of the product using either gel electrophoresis or Agilent Bioanalyzer.
In a first step, the induction of the mRNA levels of 9 candidate genes (Table 5 and FIG. 10) was verified with quantitative PCR. […] As an internal control, the house-keeping gene glycernine-aldehyde-phosphate-dehydrogenase (GAPDH) was also analyzed.

AH-Receptor = assay: Affymetrix GeneChip liver expression, AH-R; assay type: in vivo, Wistar rats; details: rat liver, 24 H, control = 1.0
Method: Male Wistar rats (generally 5 animals/dose-group) were purchased from BRL (Füllingsdorf, Switzerland) and housed individually. Treated animals were dosed either orally, intraperitoneally, or intravenously with several doses of test compounds (Table 1). […] Control animals received the same volume of vehicle as placebo. Necropsy was performed 6 or 24 hours after a single administration and liver samples from the left medial lobe were placed immediately in RNALater (Ambion, Tex., USA) for RNA extraction and gene expression analysis. Samples in RNALater were stored at −20° C. until further processing.
For RNA isolation from liver tissue, a portion of tissue of approximately 100 mg was transferred to a tube containing 1.2 ml RNAzol. […] Total RNA was isolated according to the manufacturer's instruction and quantified by measuring the optical density at 280 nm. The quality of RNA was assessed with gel electrophoresis. […]
After hybridization and scanning, the expression level of each gene was calculated by subtracting the fluorescence intensity of the mismatch probes from the match signal (=average difference) using the [sequence] […] Gene expression data were further analyzed with an in-house-developed data analysis tool (RACE-A, Hoffmann-La Roche, Basel, Switzerland). […] Analyzed data were stored in a toxicogenomics database (RACE-R, Hoffmann-La Roche, Basel, Switzerland). […]

EGR1 = assay: EGR-1 induction in rats (RT-PCR); assay type: in vivo; details: confirmed by RT-PCR
Method: Tolcapone (Tasmar) is a human hepatotoxin with no known toxicity in the rat.
§: The compounds were administered to the experimental animals three times, every 12 Hours. Animals were sacrificed 3 hours after the last administration. Shaded cells represent significant induction (threshold usually 2-fold induction).

Clc1ccccc1Cl [1,2-dichlorobenzene]
induction of GADD-45 (RT-PCR) (GADD-45): induction
SVM classification of compound class from liver expression profiles [1]: direct acting compound
induction of PEG-3 (RT-PCR) (PEG-3): induction
induction of GADD-153 (RT-PCR) (GADD-153): induction

CN(C)CCCN1c2ccccc2Sc2ccc(Cl)cc21 [Chlorpromazine]
treated patients who develop jaundice (liver): Up to 1%

NN [Hydrazine]
induction of GADD-45 (RT-PCR) (GADD-45): induction
induction of PEG-3 (RT-PCR) (PEG-3): induction
induction of GADD-153 (RT-PCR) (GADD-153): induction

Nc1ccc(S(=O)(=O)c2cc(Br)nc(N3CCCC3)c2)cc1 [Ro66-0074, 4-(2-Bromo-6-pyrrolidin-1-yl-pyridine-4-sulfonyl)-phenylamine]
expression levels of selected marker genes (RT-PCR, FIG. 10) [2]: slight induction
AH-R Affymetrix (AH-Receptor): 1.0

Nc1c2c(nc3ccccc13)CCCC2 [Tacrine]
incidence of hepatotoxicity in treated patients (liver; Alzheimer's disease patients): 40-50%

CC(=N)S [Thioacetamide]
induction of GADD-45 (RT-PCR) (GADD-45): induction
induction of PEG-3 (RT-PCR) (PEG-3): induction
induction of GADD-153 (RT-PCR) (GADD-153): induction

Cc1ccc(C(=O)c2cc(O)c(O)c([N+](=O)[O-])c2)cc1 [Tolcapone]
induction of EGR1 (EGR1; high dose 300 mg/kg): slight induction

O=C(O)CCCCCCNC1c2ccccc2CCc2ccccc21 [amineptine]
SVM classification of compound class from liver expression profiles [1]: steatotic compound

O=[N+]([O-])c1ccc(O)c([N+](=O)[O-])c1 [dinitrophenol, Dinitrophenol]
induction of EGR1 (EGR1; 10 and 30 mg/kg): slight induction
